We go through 89 compounds from a melting point compilation (Tetko et al.; mined from patent text by program, amines drawn as free bases though some values may be those of a salt).

For the compound `CCN1c2ncc(Cc3cccc(O)c3)cc2C(=O)N(C)c2ccc(Cl)nc21`, the melting point (usually the temperature, or range, at which the solid turns liquid) was in the range of 219 to 220 °C.

Compound `Nc1cccc(-c2nc(-c3cccnc3)no2)c1` gave a melting point of 161 to 163 °C.

Regarding `NC(=O)C1C=Cc2cc(Cl)ccc2N1C(=O)c1ccccc1` (centres undefined), the melting point was 230 to 234 °C.

`CC(Cc1ccc(Br)cc1)C(=O)NC(C)(C)CO` (centres undefined): the melting point is 120 to 121 °C.

`CCOC(=O)c1sc(Cc2ccccc2)nc1O` came in with a melting point of 97 to 98 °C.

For `O=C1c2ccccc2C(=O)N1Cc1noc(-c2ncn3c2[C@@H]2CCCN2C(=O)c2sccc2-3)n1`, the melting point lay in the range of 248 to 250 °C.

In turn, `O=C(O)c1c2c(nc3ccc(F)cc13)-c1ccc(C3CCCCC3)cc1CC2` displayed a melting point of 118 to 121 °C.

Consider `N#CC1CN1C(=O)CN1C(=O)c2ccccc2C1=O` (centres undefined), for which the melting point is 126 to 128 °C.

In the case of `Cc1cccc(NC(=O)NCC(=O)N(CC(=O)N2CCCC2)c2ccccc2)c1`, the melting point was determined as 206 °C.

`Cc1ccc(-c2cc(C(=O)C=Cc3ccc(C(=O)O)cc3)cc(C(C)(C)C)c2OCc2ccccc2)cc1` registered a melting point of 208 °C.

`CC1Cc2cc3c(cc2C(c2ccc([N+](=O)[O-])cc2)=NN1c1ncccn1)OCO3` (centres undefined): the melting point was 261 to 263 °C.

Turning to `COc1ccc2c(=O)c(-c3ccccc3)c(SCc3cccnc3)oc2c1`, the melting point came out at 152 °C.

As for `O=C1NC(Cc2cccs2)C(=O)NC1Cc1ccc(OCc2ccccc2)cn1` (centres undefined), the melting point fell in the range of 201 to 203 °C.

As to `O=[N+]([O-])c1cnn2c(-c3ccncc3)ccnc12`, the melting point was 241 to 244 °C.

In turn, `Cc1ccc(S(=O)(=O)OCC2Cc3cccc(-c4ccccc4Cl)c3O2)cc1` (centres undefined) came in with a melting point of 100 to 103 °C.

For `COC(=O)C1=C(C)NC(C)=C(P(=O)(OC(C)C)OC(C)C)C1c1cccc([N+](=O)[O-])c1` (centres undefined), the melting point was in the range of 205 to 207 °C.

Take `O=C(Cc1c(Br)cnc2c(NC(=O)c3c(Cl)cccc3Cl)cccc12)NCc1ccccn1`: the melting point lay in the range of 197 to 199 °C.

`Cc1ccccc1COc1cccnc1NC(=S)Nc1ccc(Cl)cc1` gave a melting point of 181 to 183 °C.

`O=C(NCCNCc1ccccc1)c1ccc(Cl)cn1` came in with a melting point of 45 to 46 °C.

On to `COc1cc(OC)cc(C(=CC#N)c2ccc3ncccc3c2)c1`, for which the melting point is 142 to 144 °C.

Regarding `CCCN(Cc1ccccc1)c1cccc(-c2nc(NC)nc3cc(OC)c(OC)cc23)c1`, the melting point was in the range of 75 to 77 °C.

Consider `CCOC(=O)C(=O)Nc1cc(OC)cc(NC(=O)C(=O)OCC)n1`, for which the melting point was in the range of 155 to 156 °C.

In the case of `COc1cccc(F)c1-c1ccc(NC(=O)OC(C)(C)C)c([N+](=O)[O-])c1`, the melting point lay within 65 to 68 °C.

`Cn1nc(-c2c(F)cccc2Cl)nc1-c1ccc(OCc2ccc(C(F)(F)F)cc2Cl)c(Cl)c1` came in with a melting point of 156 to 159 °C.

In turn, `O=c1[nH]c2cc(Cl)ccc2c(NCc2ccccc2)c1-c1ccccc1` came in with a melting point of 179 °C.

Take `CCCc1c(O)c(O)c(C(=O)O)c2cc(C)c(C)cc12`: the melting point was 170 to 172 °C.

Compound `Cc1c(C(F)F)cc(-c2ccc(S(C)(=O)=O)cc2)n1-c1ccc(F)cc1` displayed a melting point of 136 to 138 °C.

The compound `CCCCCC(O)CCCOC(=O)c1ccccc1` (centres undefined) came in with a melting point of 90 to 93 °C.

Take `Fc1ccc(Cn2c(NC3CCN(CCNC(=S)N4CCCCC4)CC3)nc3ccccc32)cc1`: the melting point amounted to 176 °C.

As for `O=C1c2ccccc2S(=O)(=O)N1CCCCBr`, the melting point was 72 °C.

In turn, `CCOc1cc2c(cc1S(N)(=O)=O)C(CNC(=O)N1CC(C)=C(CC)C1=O)CCO2` (centres undefined) registered a melting point of 192 °C.

The compound `CCN(CC)C(=O)c1nc2cnn(CC)c2nc1-c1ccccc1` had a melting point of 111 to 112 °C.

In turn, `COC(=O)c1ccccc1CS(N)(=O)=O` registered a melting point of 79 to 81 °C.

`CS(=O)(=O)c1ccc(-c2cnn(-c3cccc(Cl)c3)c(=O)c2-c2ccc(F)cc2)cc1` came in with a melting point of 232 to 235 °C.

For the compound `CCS(=O)(=O)CCc1ccc2[nH]cc(CC3CCCN3C)c2c1` (centres undefined), the melting point lay in the range of 59 to 62 °C.

Take `CC(C)n1nc(-c2c(-c3ccccc3)nc(N)nc2N2CCNCC2)ccc1=O`: the melting point lay within 254 to 256 °C.

`COc1ccc(OC)c(S(=O)(=O)n2c(COC(C)C(=O)O)cc3cc(Cl)ccc32)c1` (centres undefined): the melting point was in the range of 196 to 198 °C.

For `O=C1Cc2cc(Br)cnc2N1`, the melting point worked out at 250 °C.

Regarding `Cn1ncc2c(c1=O)SCCNC2C(=O)c1ccccc1` (centres undefined), the melting point is 210 °C.

`O=c1[nH]c2ccc(S(=O)CCCl)cc2o1` (centres undefined) yielded a melting point of 150 to 155 °C.

In the case of `CN1CCC(c2c(O)cc(O)c3c(=O)cc(-c4ccc(O)cc4Cl)oc23)C1CO` (centres undefined), the melting point is more than 300 °C.

Turning to `Cc1cc(O)cc(C)c1N`, the melting point fell in the range of 190 to 191 °C.

Turning to `COc1c(C)c2c(c(OC(C)=O)c1C/C=C/c1c(C)cccc1C(=O)O)C(=O)OC2`, the melting point was in the range of 180 to 183 °C.

In the case of `Cc1oc2cc(NC(=O)C(=O)O)ccc2c(=O)c1C`, the melting point was in the range of 234 to 240 °C.

Regarding `COc1ccc(C2=NN(CCCCCCBr)C(=O)[C@H]3CCCC[C@@H]23)cc1OC` (relative stereo), the melting point was in the range of 74 to 75 °C.

In turn, `NC(=O)C[C@H](NC(=O)OCc1ccccc1)C(=O)N[C@@H](Cc1ccccc1)[C@H](O)C(=O)O` gave a melting point of 225 to 227 °C.

`CC(CC#N)n1nnc2cc3c(=O)n(C4CC4)nnc3cc2c1=O` (centres undefined): the melting point lay in the range of 240 to 242 °C.

For the compound `CCOC(=O)c1cccc(OCc2ccc3ccccc3c2)c1`, the melting point was in the range of 45 to 46.5 °C.

Consider `CCCc1nc2c(N)nc3cccnc3c2n1CCOCCON=C(C)C`, for which the melting point was 127 to 128 °C.

`CCCCN(c1nc(NCCN)nc(N(CCCC)C2CC(C)(C)NC(C)(C)C2)n1)C1CC(C)(C)NC(C)(C)C1` registered a melting point of 140 °C.

In turn, `CNc1cc(O)c(OCCO)cc1[N+](=O)[O-]` had a melting point of 210 °C.

Regarding `Cc1c(CCNC(=O)OC(C)(C)C)c2cc(S(=O)(=O)c3ccccc3)ccc2n1C`, the melting point was 151 to 155 °C.

Turning to `c1ccc(Cc2cccc3c2[nH]c2ccccc23)cc1`, the melting point came out at 117 °C.

As to `CCCc1cc2c(c(Br)c1O)CCO2`, the melting point was 42 to 43 °C.

The compound `CS(=O)c1cc(CCC(=O)OC(C)(C)C)nc(-c2nc(=O)c3ccccc3s2)c1` (centres undefined) displayed a melting point of 160 °C.

`CCCCC(CC)NC1=NS(=O)(=O)c2sc(Cl)cc2N1` (centres undefined) displayed a melting point of 165 to 168 °C.

In turn, `CC(=O)Nc1nc(CN2CCC(c3c[nH]c4ccccc34)CC2)cs1` returned a melting point of 204 to 207 °C.

For `COc1ccc2c(=O)c(-c3ccc(OCC(O)CNC4CCCCC4)cc3)coc2c1` (centres undefined), the melting point was in the range of 125 to 126 °C.

`O=C(O)COc1ccc(C=CC(=O)c2ccc(C(=O)O)cc2)cc1` gave a melting point of 312 to 314 °C.

`Nc1cccc(-c2ccc(CCN3CC4C(N)C4C3)cc2)n1` (centres undefined) came in with a melting point of 187 to 190 °C.

`CC(=O)n1ncc(=O)[nH]c1=O` had a melting point of 150 °C.

On to `COc1cc(Nc2c(C#N)cnc3sccc23)c(Cl)cc1Cl`, for which the melting point lay within 197 to 199 °C.

Compound `Cc1c(Nc2cc(-c3cccc(C4NCCc5c4sc4c5CC(C)(C)C4)c3CO)cn(C)c2=O)cnn1C` (centres undefined) yielded a melting point of 164 to 165 °C.

With `COC=Nc1cc(-c2ncon2)nn1-c1c(Cl)cc(C(F)(F)F)cc1Cl`, the melting point was in the range of 113 to 114 °C.

For `Cc1cccc(C2(c3ccc(F)c(-c4ccc(NC(=O)NN5CCOCC5)cc4)c3)CNC(C(C)C)=N2)n1` (centres undefined), the melting point was 141 to 143 °C.

For `COc1ccc2c(c1)C(c1ccccc1)N(S(C)(=O)=O)N=C2Cc1c(Cl)cncc1Cl` (centres undefined), the melting point lay in the range of 223 to 224 °C.

For the compound `CCOC(=O)Nc1ccc(C(c2ccccc2)n2ccnc2)cc1COC1CCCCO1` (centres undefined), the melting point was found to be 132 °C.

`COc1cc(CCCC2SC(=O)NC2=O)cc(OC)c1OCc1ccccc1` (centres undefined) had a melting point of 101 to 102 °C.

With `N#Cc1c(-c2ccccc2)c(-c2ccccc2)nn(CCC(=O)NCC(=O)O)c1=O`, the melting point lay within 113 to 115 °C.

Consider `COc1ccc(-c2ocnc2-c2cc(OC)c(Br)c(OC)c2)cc1N`, for which the melting point is 180 to 184 °C.

`Nc1c(Br)cc(OC(F)F)cc1[N+](=O)[O-]`: the melting point is 60.5 to 61.5 °C.

Take `CCN1c2ncc(Br)cc2C(=O)N(C)c2ccc(F)nc21`: the melting point lay in the range of 154 to 156 °C.

For the compound `CC1(C)Cc2cc(O)c3c(c2C(c2ccccc2)=N1)CC(C)(C)O3`, the melting point lay in the range of 208 to 210 °C.

Consider `CC(C)(C)OC(=O)NS(=O)(=O)c1ccc(Br)cc1`, for which the melting point lay in the range of 127 to 128 °C.

In turn, `Cc1csc(NC(=O)C2=C(O)c3ccccc3N(c3ccccc3)C2)n1` returned a melting point of 228 to 230 °C.

For `CCOC(=O)CCCOc1ccc(-c2cc(C#N)c(=O)[nH]c2C)cc1`, the melting point is 222 to 224 °C.

`CC(=O)Nc1c(C#N)cnn1-c1c(Cl)cc(Cl)cc1Cl` showed a melting point of 163 to 164 °C.

`O=C1COc2ccc(CCCCCc3ccc4c(c3)NC(=O)CO4)cc2N1` displayed a melting point of 189 to 190 °C.

In turn, `COc1ccc2c(c1)CCC1C2CCC2(C)C(=NNS(=O)(=O)c3ccccc3)CCC12` (centres undefined) gave a melting point of 183 to 185 °C.

In the case of `CNCC(O)C1=CSC2C=CC=CC12` (centres undefined), the melting point lay within 98 to 102 °C.

`O=C(CCCl)c1cc2ccccc2o1` displayed a melting point of 116 to 118 °C.

With `COc1cc(Cl)cc(C)c1Nc1nc2c(Cl)ccc(C(O)(C(C)C)C(C)C)c2n1C`, the melting point was in the range of 218 to 219 °C.

For `CCOc1cc(CO)ncc1C`, the melting point lay in the range of 99 to 101 °C.

With `Nc1nc(Cl)c2cnn(Cc3ccccc3F)c2n1`, the melting point lay in the range of 197 to 198 °C.

As to `COC(=O)C(=CO)c1ccccc1`, the melting point lay in the range of 33.5 to 35.5 °C.

As to `COc1ccc(-c2c(Cl)c(Cn3cncn3)nc3sc4c(c23)CCSC4)cc1`, the melting point is 198 to 200 °C.

For the compound `N#CCc1c[nH]c2cccc(Cl)c12`, the melting point was in the range of 134 to 136 °C.

`CCC(C)(C)NC(Nc1cc(C(F)(F)F)cc(C(F)(F)F)c1)=C(C#N)S(=O)(=O)c1ccc(Cl)cc1`: the melting point lay in the range of 205 to 207 °C.

With `COc1nc(C)c(CC2CC2)c(C(O)c2cc(Cl)cc(C#N)c2)c1C(C)C` (centres undefined), the melting point lay within 237 to 238 °C.
